Patent US20260209195A1, “METHOD FOR PRODUCING 2-AMINO-5-SUBSTITUTED-1,3,4-OXADIAZOLE” (MITSUBISHI GAS CHEMICAL NEXT COMPANY, INC., priority 2022, published 2026)

Assay: solubility of 2-amino-5-methyl-1,3,4-oxadiazole in water and aqueous NaCl solution (salting-out effect)
Assay type: physicochemical

Question: Which “solubility in a 10 mass % aqueous NaCl solution” value (10 mass % aqueous NaCl solution (30° C. as in the same sentence)) does the source give for `Cc1nnc(N)o1` [2-amino-5-methyl-1,3,4-oxadiazole] here?
Answer: Its value is 7.9 % by mass.

Question: And the “solubility in a 26.4 mass % aqueous NaCl solution” value (30° C.)?
Answer: The value was 3.5 % by mass.

Question: What about the “solubility in a 26.4 mass % aqueous NaCl solution” value (−5° C.) of the same compound?
Answer: The value was 1.1 % by mass.

Question: And the solubility in water (water, 30° C.)?
Answer: The solubility in water was 13.9 % by mass.
